Laboratory results: PubChem BioAssay AID248 (DTP/NCI, 2004)
“And” between values parts separate entries of the source, which are not always exact repeats. Equal entries are not always repeated. Inconclusive results and toxic doses are left out.

Test system: L1210 leukemia ip in BDF1 mice, survival T/C
Experiment: NCI In Vivo Anticancer Drug Screen. Data for tumor model L1210 Leukemia (intraperitoneal) in B6D2F1 (BDF1) mice
Details: endpoint: mean survival time, higher = longer survival
Outline: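 Tumor was transplanted into mice, which were then dosed with test compound or vehicle alone. Survival was recorded for each group, and the treated figure was expressed relative to the control figure.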

[1] = dose: 50.0 mg/kg/injection, schedule: Q01DX001 (ip), vehicle: carboxymethylcellulose (CMC)
[2] = dose: 100.0 mg/kg/injection, schedule: Q01DX001 (ip), vehicle: carboxymethylcellulose (CMC)
[3] = dose: 100.0 mg/kg/injection, schedule: Q01DX001 (ip), vehicle: saline
[4] = dose: 200.0 mg/kg/injection, schedule: Q01DX001 (ip), vehicle: carboxymethylcellulose (CMC)
[5] = dose: 400.0 mg/kg/injection, schedule: Q01DX001 (ip), vehicle: carboxymethylcellulose (CMC)
[6] = dose: 100.0 mg/kg/injection, schedule: Q04DX003 (ip), vehicle: saline with Tween-80
[7] = dose: 200.0 mg/kg/injection, schedule: Q04DX003 (ip), vehicle: saline with Tween-80
[8] = dose: 400.0 mg/kg/injection, schedule: Q04DX003 (ip), vehicle: saline with Tween-80
[9] = dose: 200.0 mg/kg/injection, schedule: Q01DX001 (ip), vehicle: saline
[10] = dose: 400.0 mg/kg/injection, schedule: Q01DX001 (ip), vehicle: saline
[11] = dose: 100.0 mg/kg/injection, schedule: Q01DX009 (ip), vehicle: Klucel (hydroxypropylcellulose) (HPC)
[12] = dose: 200.0 mg/kg/injection, schedule: Q01DX009 (ip), vehicle: Klucel (hydroxypropylcellulose) (HPC)
[13] = dose: 50.0 mg/kg/injection, schedule: Q01DX009 (ip), vehicle: Klucel (hydroxypropylcellulose) (HPC)

COc1cc([C@@H]2c3cc4c(cc3[C@H](O)[C@H]3COC(=O)[C@@H]23)OCO4)cc(OC)c1OC
T/C (dose: 6.0 mg/kg/injection, schedule: Q01DX009 (ip), vehicle: Klucel (hydroxypropylcellulose) (HPC)): 88 % of control | T/C (dose: 6.25 mg/kg/injection, schedule: Q01DX009 (ip), vehicle: saline): 105 % of control | T/C (dose: 7.0 mg/kg/injection, schedule: Q01DX Z (ip), vehicle: methylcellulose (MC)): 100 % of control | T/C (dose: 11.0 mg/kg/injection, schedule: Q01DX Z (ip), vehicle: methylcellulose (MC)): 112 % of control | T/C (dose: 12.0 mg/kg/injection, schedule: Q01DX009 (ip), vehicle: Klucel (hydroxypropylcellulose) (HPC)): 95 % of control | T/C (dose: 12.5 mg/kg/injection, schedule: Q01DX009 (ip), vehicle: saline): 107 % of control | T/C (dose: 15.0 mg/kg/injection, schedule: Q01DX Z (ip), vehicle: methylcellulose (MC)): 116 % of control | T/C (dose: 15.0 mg/kg/injection, schedule: Q04DX003 (ip), vehicle: Klucel (hydroxypropylcellulose) (HPC)): 107 % of control | T/C (dose: 16.0 mg/kg/injection, schedule: Q01DX Z (ip), vehicle: methylcellulose (MC)): 120 % of control | T/C (dose: 24.0 mg/kg/injection, schedule: Q01DX009 (ip), vehicle: Klucel (hydroxypropylcellulose) (HPC)): 101 % of control | T/C (dose: 24.0 mg/kg/injection, schedule: Q01DX Z (ip), vehicle: methylcellulose (MC)): 88 % of control | T/C (dose: 25.0 mg/kg/injection, schedule: Q01DX009 (ip), vehicle: saline): 113 % of control | T/C (dose: 30.0 mg/kg/injection, schedule: Q01DX Z (ip), vehicle: methylcellulose (MC)): 101 % of control | T/C (dose: 30.0 mg/kg/injection, schedule: Q04DX003 (ip), vehicle: Klucel (hydroxypropylcellulose) (HPC)): 96 % of control | T/C (dose: 37.5 mg/kg/injection, schedule: Q04DX003 (ip), vehicle: Klucel (hydroxypropylcellulose) (HPC)): 97 % of control | T/C (dose: 45.0 mg/kg/injection, schedule: Q01DX001 (ip), vehicle: saline): 94 % of control and 102 % of control | T/C (dose: 48.0 mg/kg/injection, schedule: Q01DX009 (ip), vehicle: Klucel (hydroxypropylcellulose) (HPC)): 120 % of control | T/C [1]: 107 % of control | T/C (dose: 60.0 mg/kg/injection, schedule: Q04DX003 (ip), vehicle: Klucel (hydroxypropylcellulose) (HPC)): 100 % of control | T/C (dose: 65.0 mg/kg/injection, schedule: Q01DX001 (ip), vehicle: saline): 96 % of control and 124 % of control | T/C (dose: 75.0 mg/kg/injection, schedule: Q01DX009 (ip), vehicle: saline): 92 % of control | T/C (dose: 75.0 mg/kg/injection, schedule: Q04DX003 (ip), vehicle: Klucel (hydroxypropylcellulose) (HPC)): 114 % of control | T/C [2]: 105 % of control | T/C [3]: 96 % of control | T/C (dose: 120.0 mg/kg/injection, schedule: Q04DX003 (ip), vehicle: Klucel (hydroxypropylcellulose) (HPC)): 104 % of control | T/C (dose: 150.0 mg/kg/injection, schedule: Q01DX001 (ip), vehicle: saline): 93 % of control and 107 % of control | T/C (dose: 150.0 mg/kg/injection, schedule: Q04DX003 (ip), vehicle: Klucel (hydroxypropylcellulose) (HPC)): 111 % of control | T/C [4]: 110 % of control | T/C (dose: 240.0 mg/kg/injection, schedule: Q04DX003 (ip), vehicle: Klucel (hydroxypropylcellulose) (HPC)): 91 % of control | T/C (dose: 300.0 mg/kg/injection, schedule: Q04DX003 (ip), vehicle: Klucel (hydroxypropylcellulose) (HPC)): 100 % of control | T/C [5]: 102 % of control

CC(=O)N1C=C(Br)c2ccccc2C1C1c2ccccc2C(Br)=CN1C(C)=O (configuration not stated)
T/C [6]: 91 % of control | T/C [7]: 87 % of control | T/C [8]: 91 % of control

CN(C)[C@@H]1C(=O)C(C(=O)NCNc2cccc(C(=O)O)c2C(=O)O)=C(O)[C@@]2(O)C(=O)C3=C(O)c4c(O)cccc4[C@@](C)(O)[C@H]3C[C@@H]12
T/C (dose: 100.0 mg/kg/injection, schedule: Q01DX Z (ip), vehicle: saline): 110 % of control | T/C (dose: 150.0 mg/kg/injection, schedule: Q01DX Z (ip), vehicle: saline): 105 % of control | T/C (dose: 225.0 mg/kg/injection, schedule: Q01DX Z (ip), vehicle: saline): 104 % of control | T/C (dose: 340.0 mg/kg/injection, schedule: Q01DX Z (ip), vehicle: saline): 103 % of control

Cc1cc(-n2c(C)ccc2C)no1
T/C [6]: 100 % of control | T/C [7]: 90 % of control | T/C [8]: 101 % of control

C=Cc1ccc(O)cc1
T/C [3]: 103 % of control | T/C [9]: 106 % of control | T/C [10]: 98 % of control

CN(C)Cc1ccc(Cl)cc1C(O)(c1ccccc1)c1ccccc1
T/C [1]: 101 % of control | T/C [2]: 104 % of control | T/C [4]: 93 % of control | T/C [5]: 93 % of control

Clc1ccc2noc(-c3ccccc3)c2c1
T/C [3]: 104 % of control | T/C [11]: 95 % of control | T/C (dose: 100.0 mg/kg/injection, schedule: Q04DX003 (ip), vehicle: Klucel (hydroxypropylcellulose) (HPC)): 100 % of control | T/C [9]: 100 % of control | T/C [12]: 102 % of control | T/C (dose: 200.0 mg/kg/injection, schedule: Q04DX003 (ip), vehicle: Klucel (hydroxypropylcellulose) (HPC)): 94 % of control | T/C [10]: 98 % of control | T/C (dose: 400.0 mg/kg/injection, schedule: Q01DX009 (ip), vehicle: Klucel (hydroxypropylcellulose) (HPC)): 95 % of control | T/C (dose: 400.0 mg/kg/injection, schedule: Q04DX003 (ip), vehicle: Klucel (hydroxypropylcellulose) (HPC)): 90 % of control

CCCCCCCCCCCCC(CCCCCCCCCCCC)C1CCCCC1
T/C [3]: 102 % of control | T/C [9]: 104 % of control | T/C [10]: 95 % of control

CCn1nnc2c(=O)[nH]c(N)nc21
T/C [6]: 105 % of control | T/C [7]: 104 % of control | T/C [8]: 94 % of control

CCOC(=O)C1C(=O)C(C(C(=O)OC2CC(C)CCC2C(C)C)N(CCCl)CCCl)C(=O)C(C(=O)OCC)C1c1ccc(O)cc1 (configuration not stated)
T/C [13]: 104 % of control | T/C [11]: 104 % of control | T/C [12]: 101 % of control

CCCNC(=S)NNC(=O)c1ccncc1
T/C (dose: 100.0 mg/kg/injection, schedule: Q04DX002 (ip), vehicle: saline with Tween-80): 100 % of control | T/C (dose: 200.0 mg/kg/injection, schedule: Q04DX002 (ip), vehicle: saline with Tween-80): 118 % of control

CCCCC(C#N)(CCCC)C(=O)OCC
T/C [6]: 93 % of control | T/C [7]: 98 % of control

CCc1c(CNc2ccc(C(=O)NC(CC(=O)O)C(=O)O)cc2)ccc2nc(N)nc(N)c12 (configuration not stated)
T/C (dose: 0.06 mg/kg/injection, schedule: Q01DX009 (ip), vehicle: saline): 112 % of control | T/C (dose: 0.25 mg/kg/injection, schedule: Q01DX009 (ip), vehicle: saline): 150 % of control and 184 % of control | T/C (dose: 0.5 mg/kg/injection, schedule: Q01DX009 (ip), vehicle: saline): 150 % of control | T/C (dose: 0.5 mg/kg/injection, schedule: Q04DX003 (ip), vehicle: saline): 112 % of control | T/C (dose: 1.0 mg/kg/injection, schedule: Q01DX009 (ip), vehicle: saline): 90 % of control and 91 % of control | T/C (dose: 4.0 mg/kg/injection, schedule: Q04DX003 (ip), vehicle: saline): 154 % of control | T/C (dose: 8.0 mg/kg/injection, schedule: Q04DX003 (ip), vehicle: saline): 113 % of control

Cc1ccc(N=Nc2c(O)ccc3ccccc23)cc1
T/C [1]: 91 % of control | T/C [2]: 91 % of control | T/C [4]: 91 % of control | T/C [5]: 91 % of control

CCNCCNC
T/C (dose: 50.0 mg/kg/injection, schedule: Q01DX009 (ip), vehicle: saline): 96 % of control | T/C (dose: 100.0 mg/kg/injection, schedule: Q01DX009 (ip), vehicle: saline): 101 % of control | T/C (dose: 100.0 mg/kg/injection, schedule: Q04DX003 (ip), vehicle: saline): 108 % of control | T/C (dose: 200.0 mg/kg/injection, schedule: Q04DX003 (ip), vehicle: saline): 101 % of control

Cc1nn(C2CC(OC(=O)c3ccc([N+](=O)[O-])cc3)C(OC(=O)c3ccc([N+](=O)[O-])cc3)C(COC(=O)c3ccc([N+](=O)[O-])cc3)O2)c(=O)[nH]c1=O (configuration not stated)
T/C (dose: 100.0 mg/kg/injection, schedule: Q01DX005 (ip), vehicle: saline): 100 % of control | T/C (dose: 200.0 mg/kg/injection, schedule: Q01DX005 (ip), vehicle: saline): 96 % of control

Cc1cccc(CN=C(N)CSS(=O)(=O)O)n1
T/C (dose: 25.0 mg/kg/injection, schedule: Q01DX009 (ip), vehicle: Klucel (hydroxypropylcellulose) (HPC)): 104 % of control | T/C (dose: 25.0 mg/kg/injection, schedule: Q04DX002 (ip), vehicle: Klucel (hydroxypropylcellulose) (HPC)): 92 % of control | T/C [13]: 96 % of control | T/C (dose: 50.0 mg/kg/injection, schedule: Q04DX002 (ip), vehicle: Klucel (hydroxypropylcellulose) (HPC)): 103 % of control | T/C (dose: 100.0 mg/kg/injection, schedule: Q04DX002 (ip), vehicle: Klucel (hydroxypropylcellulose) (HPC)): 101 % of control and 88 % of control
